Activity calls are given as the source filed them. Cut-off read from the data, not from the text of the source, for most assays here: actives have a measured Kd and inactives only a lower limit.
Tests used:
Myosin-14 = Myosin-14 (Homo sapiens, UniProt Q7Z406)
[1] = target: Serine/threonine-protein kinase SIK2 (Homo sapiens, UniProt Q9H0K1)
[2] = target: Dual specificity protein kinase CLK1 (Homo sapiens, UniProt P49759)
[3] = target: Cyclin-dependent kinase 6 (Homo sapiens, UniProt Q00534)
[4] = target: Serine/threonine-protein kinase 26 (Homo sapiens, UniProt Q9P289)
Chain of Serine/threonine-protein kinase 26 (Q9P289 whole entry): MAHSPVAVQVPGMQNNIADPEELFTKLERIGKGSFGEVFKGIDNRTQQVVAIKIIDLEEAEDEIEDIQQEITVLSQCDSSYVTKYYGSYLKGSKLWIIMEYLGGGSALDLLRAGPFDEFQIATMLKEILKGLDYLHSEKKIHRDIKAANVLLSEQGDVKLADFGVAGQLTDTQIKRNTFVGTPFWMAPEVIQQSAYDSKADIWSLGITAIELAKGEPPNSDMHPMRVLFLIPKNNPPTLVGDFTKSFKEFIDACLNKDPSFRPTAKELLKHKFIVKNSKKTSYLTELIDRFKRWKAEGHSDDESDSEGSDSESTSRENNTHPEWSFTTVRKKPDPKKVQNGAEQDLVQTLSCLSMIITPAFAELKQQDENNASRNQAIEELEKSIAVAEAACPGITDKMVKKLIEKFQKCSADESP

[5] = target: T1, Breakpoint cluster region protein (Homo sapiens, UniProt P11274)
T1 sequence (P11274 whole entry): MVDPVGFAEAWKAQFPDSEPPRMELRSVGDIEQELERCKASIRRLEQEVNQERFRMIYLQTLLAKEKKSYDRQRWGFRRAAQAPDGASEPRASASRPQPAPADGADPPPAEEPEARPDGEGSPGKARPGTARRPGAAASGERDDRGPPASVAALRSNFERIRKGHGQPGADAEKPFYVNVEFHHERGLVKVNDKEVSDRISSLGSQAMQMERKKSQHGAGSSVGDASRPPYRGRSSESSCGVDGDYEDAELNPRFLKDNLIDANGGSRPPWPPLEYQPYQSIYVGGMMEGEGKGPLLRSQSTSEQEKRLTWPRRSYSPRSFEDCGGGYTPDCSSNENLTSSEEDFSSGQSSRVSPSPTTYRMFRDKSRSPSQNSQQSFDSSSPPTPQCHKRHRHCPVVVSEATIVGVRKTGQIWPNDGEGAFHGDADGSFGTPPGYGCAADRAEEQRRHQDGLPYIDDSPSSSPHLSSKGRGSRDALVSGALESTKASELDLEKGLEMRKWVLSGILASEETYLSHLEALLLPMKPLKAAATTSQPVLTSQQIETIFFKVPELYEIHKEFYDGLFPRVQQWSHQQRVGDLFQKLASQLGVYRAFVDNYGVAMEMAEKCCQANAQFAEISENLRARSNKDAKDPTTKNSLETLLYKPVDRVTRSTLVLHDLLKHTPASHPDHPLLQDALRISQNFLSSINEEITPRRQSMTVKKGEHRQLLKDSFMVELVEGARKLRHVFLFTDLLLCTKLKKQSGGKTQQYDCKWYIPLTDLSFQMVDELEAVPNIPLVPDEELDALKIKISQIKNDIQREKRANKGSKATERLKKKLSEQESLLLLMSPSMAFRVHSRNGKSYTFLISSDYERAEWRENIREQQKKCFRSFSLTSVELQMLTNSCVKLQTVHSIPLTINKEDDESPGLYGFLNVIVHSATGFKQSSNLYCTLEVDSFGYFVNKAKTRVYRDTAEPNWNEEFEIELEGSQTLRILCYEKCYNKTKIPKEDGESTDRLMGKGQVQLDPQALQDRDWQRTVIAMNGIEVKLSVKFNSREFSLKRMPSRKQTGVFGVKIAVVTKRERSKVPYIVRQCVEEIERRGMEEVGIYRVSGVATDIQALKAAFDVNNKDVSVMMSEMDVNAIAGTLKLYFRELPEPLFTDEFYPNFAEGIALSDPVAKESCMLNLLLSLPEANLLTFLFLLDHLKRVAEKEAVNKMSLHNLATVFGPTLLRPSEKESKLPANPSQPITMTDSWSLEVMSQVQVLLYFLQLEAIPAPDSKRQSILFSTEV

[6] = target: T2, Probable ATP-dependent RNA helicase DDX6 (Homo sapiens, UniProt P26196)
T2 sequence (P26196 whole entry): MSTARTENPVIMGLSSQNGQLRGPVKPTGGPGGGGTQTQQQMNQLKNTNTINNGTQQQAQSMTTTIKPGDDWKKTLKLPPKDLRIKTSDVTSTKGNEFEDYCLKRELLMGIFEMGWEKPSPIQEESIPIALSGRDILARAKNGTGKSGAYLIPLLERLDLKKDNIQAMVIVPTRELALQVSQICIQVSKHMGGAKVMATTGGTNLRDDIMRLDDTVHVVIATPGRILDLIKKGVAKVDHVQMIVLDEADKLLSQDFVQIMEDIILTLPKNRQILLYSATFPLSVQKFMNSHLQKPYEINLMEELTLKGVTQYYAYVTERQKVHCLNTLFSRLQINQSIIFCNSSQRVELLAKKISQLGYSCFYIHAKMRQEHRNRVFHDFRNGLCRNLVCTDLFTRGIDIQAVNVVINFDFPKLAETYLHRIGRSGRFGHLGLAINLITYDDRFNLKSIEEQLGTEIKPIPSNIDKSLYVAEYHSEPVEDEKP

[7] = target: T3, Non-receptor tyrosine-protein kinase TNK1 (Homo sapiens, UniProt Q13470)
T3 sequence (Q13470 whole entry): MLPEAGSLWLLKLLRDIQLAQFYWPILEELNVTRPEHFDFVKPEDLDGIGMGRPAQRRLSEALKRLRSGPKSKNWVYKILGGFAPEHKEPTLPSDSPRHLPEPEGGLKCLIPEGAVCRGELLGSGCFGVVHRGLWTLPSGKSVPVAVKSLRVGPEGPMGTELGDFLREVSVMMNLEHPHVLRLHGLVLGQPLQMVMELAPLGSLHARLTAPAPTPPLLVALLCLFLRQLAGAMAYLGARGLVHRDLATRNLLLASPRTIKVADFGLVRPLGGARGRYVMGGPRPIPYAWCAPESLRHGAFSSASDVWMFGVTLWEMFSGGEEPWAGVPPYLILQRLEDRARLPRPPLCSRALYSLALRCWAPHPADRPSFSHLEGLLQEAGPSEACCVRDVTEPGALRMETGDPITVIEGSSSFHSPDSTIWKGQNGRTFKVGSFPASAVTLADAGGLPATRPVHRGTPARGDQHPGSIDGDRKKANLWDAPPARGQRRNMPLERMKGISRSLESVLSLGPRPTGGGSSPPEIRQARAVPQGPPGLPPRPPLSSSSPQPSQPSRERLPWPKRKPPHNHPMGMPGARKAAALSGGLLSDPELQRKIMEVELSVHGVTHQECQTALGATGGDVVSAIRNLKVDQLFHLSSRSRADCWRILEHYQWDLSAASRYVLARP
Note: in the data inactive means no Kd found up to 30 µM.

Chain of Serine/threonine-protein kinase SIK2 (Q9H0K1 whole entry): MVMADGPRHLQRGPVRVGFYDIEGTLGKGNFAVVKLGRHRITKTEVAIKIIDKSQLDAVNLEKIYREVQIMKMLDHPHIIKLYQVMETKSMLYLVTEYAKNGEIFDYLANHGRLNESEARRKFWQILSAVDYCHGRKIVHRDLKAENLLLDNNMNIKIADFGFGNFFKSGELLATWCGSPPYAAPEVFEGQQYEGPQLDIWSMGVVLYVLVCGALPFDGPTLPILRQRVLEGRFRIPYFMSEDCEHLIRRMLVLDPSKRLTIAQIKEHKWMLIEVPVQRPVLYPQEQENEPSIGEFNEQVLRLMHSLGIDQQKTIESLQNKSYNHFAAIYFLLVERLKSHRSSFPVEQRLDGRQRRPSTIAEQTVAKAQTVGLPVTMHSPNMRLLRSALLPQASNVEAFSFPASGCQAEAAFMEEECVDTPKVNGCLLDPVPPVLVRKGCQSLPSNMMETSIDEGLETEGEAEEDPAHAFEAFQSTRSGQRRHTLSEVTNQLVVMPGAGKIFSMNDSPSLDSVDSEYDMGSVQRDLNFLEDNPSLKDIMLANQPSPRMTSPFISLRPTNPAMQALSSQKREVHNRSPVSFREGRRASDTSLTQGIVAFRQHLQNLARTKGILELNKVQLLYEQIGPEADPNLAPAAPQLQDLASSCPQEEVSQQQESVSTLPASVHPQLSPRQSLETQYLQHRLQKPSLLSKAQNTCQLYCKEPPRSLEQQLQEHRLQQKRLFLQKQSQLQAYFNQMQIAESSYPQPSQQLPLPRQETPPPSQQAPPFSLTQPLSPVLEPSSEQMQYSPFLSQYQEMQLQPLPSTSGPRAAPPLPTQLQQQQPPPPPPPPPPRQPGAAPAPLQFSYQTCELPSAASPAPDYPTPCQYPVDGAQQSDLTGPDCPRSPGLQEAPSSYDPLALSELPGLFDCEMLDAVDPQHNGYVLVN
Chain of Dual specificity protein kinase CLK1 (P49759 whole entry): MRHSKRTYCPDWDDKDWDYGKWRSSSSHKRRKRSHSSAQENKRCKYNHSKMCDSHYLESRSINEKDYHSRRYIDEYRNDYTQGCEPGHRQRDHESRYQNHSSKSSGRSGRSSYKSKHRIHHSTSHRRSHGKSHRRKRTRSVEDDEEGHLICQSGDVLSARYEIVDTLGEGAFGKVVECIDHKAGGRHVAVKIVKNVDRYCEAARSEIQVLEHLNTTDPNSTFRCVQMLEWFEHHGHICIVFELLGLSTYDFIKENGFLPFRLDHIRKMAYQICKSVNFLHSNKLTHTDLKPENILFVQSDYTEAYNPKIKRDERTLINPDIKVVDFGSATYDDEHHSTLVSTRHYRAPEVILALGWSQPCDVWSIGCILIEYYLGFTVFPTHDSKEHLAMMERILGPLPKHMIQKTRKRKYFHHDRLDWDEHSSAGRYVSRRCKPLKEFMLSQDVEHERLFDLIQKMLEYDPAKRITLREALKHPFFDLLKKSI
Chain of Cyclin-dependent kinase 6 (Q00534 whole entry): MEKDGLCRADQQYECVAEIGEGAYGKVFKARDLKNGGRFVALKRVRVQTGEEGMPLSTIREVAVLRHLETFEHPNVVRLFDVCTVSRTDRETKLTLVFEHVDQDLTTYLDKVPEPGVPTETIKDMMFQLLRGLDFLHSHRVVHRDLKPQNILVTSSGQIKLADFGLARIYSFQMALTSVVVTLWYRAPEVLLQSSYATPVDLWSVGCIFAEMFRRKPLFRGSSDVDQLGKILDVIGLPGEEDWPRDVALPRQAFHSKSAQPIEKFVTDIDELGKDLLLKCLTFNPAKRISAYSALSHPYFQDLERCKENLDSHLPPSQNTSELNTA
Chain of Myosin-14 (Q7Z406 whole entry): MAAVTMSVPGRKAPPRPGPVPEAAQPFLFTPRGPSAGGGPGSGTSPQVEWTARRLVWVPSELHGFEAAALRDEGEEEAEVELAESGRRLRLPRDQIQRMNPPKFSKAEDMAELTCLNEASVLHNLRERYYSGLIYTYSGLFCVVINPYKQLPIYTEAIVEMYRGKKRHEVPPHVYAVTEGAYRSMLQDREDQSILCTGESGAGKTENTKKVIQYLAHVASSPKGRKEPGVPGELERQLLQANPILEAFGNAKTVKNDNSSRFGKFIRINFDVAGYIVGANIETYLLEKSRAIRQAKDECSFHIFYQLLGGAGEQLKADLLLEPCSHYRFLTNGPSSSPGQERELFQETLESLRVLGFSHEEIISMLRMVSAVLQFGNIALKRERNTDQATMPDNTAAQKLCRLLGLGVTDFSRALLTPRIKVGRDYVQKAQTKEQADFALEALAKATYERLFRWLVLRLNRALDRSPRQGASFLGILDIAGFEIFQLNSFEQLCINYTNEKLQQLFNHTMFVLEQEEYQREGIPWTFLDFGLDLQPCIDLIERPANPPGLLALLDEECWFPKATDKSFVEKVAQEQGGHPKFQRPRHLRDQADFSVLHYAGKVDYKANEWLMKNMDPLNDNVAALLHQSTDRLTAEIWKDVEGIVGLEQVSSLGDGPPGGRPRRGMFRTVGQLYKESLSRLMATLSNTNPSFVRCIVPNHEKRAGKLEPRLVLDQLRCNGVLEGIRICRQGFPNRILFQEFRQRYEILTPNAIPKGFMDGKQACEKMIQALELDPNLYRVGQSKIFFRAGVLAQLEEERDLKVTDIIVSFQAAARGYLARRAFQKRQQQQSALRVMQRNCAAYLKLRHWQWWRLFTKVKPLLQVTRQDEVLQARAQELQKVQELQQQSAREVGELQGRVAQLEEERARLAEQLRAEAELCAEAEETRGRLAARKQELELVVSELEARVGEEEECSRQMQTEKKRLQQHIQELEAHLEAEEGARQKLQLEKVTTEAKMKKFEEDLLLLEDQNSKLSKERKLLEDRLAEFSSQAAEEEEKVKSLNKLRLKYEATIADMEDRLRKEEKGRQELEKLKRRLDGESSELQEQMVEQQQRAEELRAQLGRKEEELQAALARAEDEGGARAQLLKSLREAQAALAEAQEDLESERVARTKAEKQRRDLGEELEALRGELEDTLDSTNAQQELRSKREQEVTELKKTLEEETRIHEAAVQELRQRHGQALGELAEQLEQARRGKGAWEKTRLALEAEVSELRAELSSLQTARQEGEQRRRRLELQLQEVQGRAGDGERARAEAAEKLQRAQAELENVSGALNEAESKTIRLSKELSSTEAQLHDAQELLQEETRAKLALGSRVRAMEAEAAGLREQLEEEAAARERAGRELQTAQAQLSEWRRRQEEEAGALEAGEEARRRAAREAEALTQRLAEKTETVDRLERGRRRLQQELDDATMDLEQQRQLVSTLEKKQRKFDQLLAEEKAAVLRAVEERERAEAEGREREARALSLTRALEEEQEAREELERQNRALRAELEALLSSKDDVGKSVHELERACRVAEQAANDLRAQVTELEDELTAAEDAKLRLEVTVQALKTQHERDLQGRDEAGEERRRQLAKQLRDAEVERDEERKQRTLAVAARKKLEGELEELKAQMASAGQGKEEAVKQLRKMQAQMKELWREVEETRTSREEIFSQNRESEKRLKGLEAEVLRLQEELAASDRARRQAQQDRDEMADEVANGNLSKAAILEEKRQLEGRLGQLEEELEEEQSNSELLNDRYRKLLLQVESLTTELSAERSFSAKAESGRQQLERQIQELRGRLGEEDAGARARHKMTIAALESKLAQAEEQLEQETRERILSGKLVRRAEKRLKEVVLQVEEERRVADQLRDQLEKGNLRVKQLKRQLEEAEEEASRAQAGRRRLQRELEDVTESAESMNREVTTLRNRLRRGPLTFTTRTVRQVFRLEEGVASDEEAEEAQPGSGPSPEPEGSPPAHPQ

SMILES	Kd (Myosin-14)	Kd [1]	Kd [2]	Kd [3]	Kd [4]	Kd [5]	Kd [6]	Kd [7]
c1cc(OCCN2CCCCC2)cc(-c2n[nH]c3ccc(-c4nc[nH]n4)cc23)c1 [CC-401]	> 30 µM (inactive)	> 30 µM (inactive)	> 30 µM (inactive)	> 30 µM (inactive)	> 30 µM (inactive)	> 30 µM (inactive)	> 30 µM (inactive)	> 30 µM (inactive)
O=C(NOC[C@H](O)CO)c1ccc(F)c(F)c1Nc1ccc(I)cc1F [MIRDAMETINIB]	> 30 µM (inactive)	> 30 µM (inactive)	> 30 µM (inactive)	> 30 µM (inactive)	> 30 µM (inactive)	> 30 µM (inactive)	> 30 µM (inactive)	> 30 µM (inactive)
C[C@@H]1COC(Nc2ccc3ncnc(Nc4ccc(OCc5nccs5)c(Cl)c4)c3c2)=N1 [VARLITINIB]	> 30 µM (inactive)	> 30 µM (inactive)	> 30 µM (inactive)	> 30 µM (inactive)	> 30 µM (inactive)	> 30 µM (inactive)	> 30 µM (inactive)	> 30 µM (inactive)
COc1cc2nccc(Oc3ccc(NC(=O)C4(C(=O)Nc5ccc(F)cc5)CC4)cc3)c2cc1OC [CABOZANTINIB]	> 30 µM (inactive)	> 30 µM (inactive)	> 30 µM (inactive)	> 30 µM (inactive)	> 30 µM (inactive)	0.342 µM (active)	> 30 µM (inactive)	> 30 µM (inactive)
CNC(=O)c1cccc(-c2ccc3c(N4CCOC[C@@H]4C)nc(N4CCOC[C@@H]4C)nc3n2)c1 [VISTUSERTIB]	> 30 µM (inactive)	> 30 µM (inactive)	> 30 µM (inactive)	> 30 µM (inactive)	> 30 µM (inactive)	> 30 µM (inactive)	> 30 µM (inactive)	> 30 µM (inactive)
S=C(NCc1ccc2c(c1)OCO2)N1CCN(c2ncnc3c2oc2ccccc23)CC1 [AMUVATINIB]	> 30 µM (inactive)	> 30 µM (inactive)	> 30 µM (inactive)	> 30 µM (inactive)	> 30 µM (inactive)	> 30 µM (inactive)	> 30 µM (inactive)	> 30 µM (inactive)
COc1ccc(-c2ccc3ncc4c(c3c2)n(-c2ccc(N3CCNCC3)c(C(F)(F)F)c2)c(=O)n4C)cn1 [BGT-226 FREE BASE]	> 30 µM (inactive)	> 30 µM (inactive)	0.246 µM (active)	> 30 µM (inactive)	> 30 µM (inactive)	> 30 µM (inactive)	> 30 µM (inactive)	> 30 µM (inactive)
O=S(=O)(c1cccc2cnccc12)N1CCCNCC1 [FASUDIL]	> 30 µM (inactive)	> 30 µM (inactive)	0.152 µM	> 30 µM (inactive)	> 30 µM (inactive)	> 30 µM (inactive)	> 30 µM (inactive)	> 30 µM (inactive)
C=CC(=O)Nc1cc(Nc2nccc(-c3cn(C)c4ccccc34)n2)c(OC)cc1N(C)CCN(C)C [OSIMERTINIB]	> 30 µM (inactive)	> 30 µM (inactive)	> 30 µM (inactive)	> 30 µM (inactive)	> 30 µM (inactive)	> 30 µM (inactive)	> 30 µM (inactive)	> 30 µM (inactive)
Cc1c(Cn2c(C)nc3c(C(=O)O)cc(N4CCOCC4)cc32)cccc1C(F)(F)F [GSK-2636771]	> 30 µM (inactive)	> 30 µM (inactive)	> 30 µM (inactive)	> 30 µM (inactive)	> 30 µM (inactive)	> 30 µM (inactive)	> 30 µM (inactive)	> 30 µM (inactive)
COc1cc2ncnc(Nc3ccc(F)c(Cl)c3)c2cc1NC(=O)/C=C/CN1CCCCC1 [DACOMITINIB ANHYDROUS]	> 30 µM (inactive)	> 30 µM (inactive)	> 30 µM (inactive)	> 30 µM (inactive)	> 30 µM (inactive)	> 30 µM (inactive)	> 30 µM (inactive)	> 30 µM (inactive)
O=C(NC[C@H](O)CO)c1ccncc1Nc1ccc(I)cc1F [PIMASERTIB]	> 30 µM (inactive)	> 30 µM (inactive)	> 30 µM (inactive)	> 30 µM (inactive)	> 30 µM (inactive)	> 30 µM (inactive)	> 30 µM (inactive)	> 30 µM (inactive)
C#Cc1cccc(Nc2ncnc3cc4c(cc23)OCCOCCOCCO4)c1 [ICOTINIB]	> 30 µM (inactive)	> 30 µM (inactive)	> 30 µM (inactive)	> 30 µM (inactive)	> 30 µM (inactive)	> 30 µM (inactive)	> 30 µM (inactive)	> 30 µM (inactive)

Other lines, results leading:

Kd (Myosin-14)	Kd [1]	Kd [2]	Kd [3]	Kd [4]	Kd [5]	Kd [6]	Kd [7]	SMILES
> 30 µM (inactive)	> 30 µM (inactive)	> 30 µM (inactive)	> 30 µM (inactive)	> 30 µM (inactive)	> 30 µM (inactive)	> 30 µM (inactive)	> 30 µM (inactive)	CC(C)(O)CC(=O)NCCn1ccc2ncnc(Nc3ccc(Oc4cccc(C(F)(F)F)c4)c(Cl)c3)c21 [TAK-285]
> 30 µM (inactive)	> 30 µM (inactive)	> 30 µM (inactive)	> 30 µM (inactive)	> 30 µM (inactive)	> 30 µM (inactive)	> 30 µM (inactive)	> 30 µM (inactive)	COc1cc2ncnc3c2cc1OCCCCCN(C)Cc1ccc(Br)cc1N3 [JNJ-26483327]
> 30 µM (inactive)	> 30 µM (inactive)	> 30 µM (inactive)	> 30 µM (inactive)	> 30 µM (inactive)	> 30 µM (inactive)	> 30 µM (inactive)	> 30 µM (inactive)	O=C(Nc1ccc(OC(F)(F)F)cc1)c1sccc1NCc1ccnc2ccccc12 [OSI-930]
> 30 µM (inactive)	> 30 µM (inactive)	> 30 µM (inactive)	> 30 µM (inactive)	> 30 µM (inactive)	> 30 µM (inactive)	> 30 µM (inactive)	> 30 µM (inactive)	COc1ccc2c(OCc3nnc4ccc(-c5ccccc5)nn34)ccnc2c1 [AMG-208]

— ChEMBL document CHEMBL3991601, “The target landscape of clinical kinase drugs” (Science, 2017)
